Measurements: ChEMBL document CHEMBL1201862, “PubChem BioAssay data set” (2004)
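Values below derive from 48-hour exposures of cells grown in 96-well plates, with endpoints linearly interpolated between the two concentrations bracketing the appropriate inhibition level. GI50: concentration for 50% inhibition of growth.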 Active and inactive are the calls of the source. Cut-off read from the data, not from the text of the source: active = GI50 up to about 1.1 µM and inactive = higher.

Legend:
Assay in all cases: NCI anticancer screen, dose series, 48 h
786-0 = test system: 786-0
A498 = test system: A498
A549 = test system: A549
ACHN = test system: ACHN
BT-549 = test system: BT-549
CAKI-1 = test system: CAKI-1
COLO 205 = test system: COLO 205
DU-145 = test system: DU-145
EKVX = test system: EKVX
HCC 2998 = test system: HCC 2998
HCT-116 = test system: HCT-116
HCT-15 = test system: HCT-15
HL-60 = test system: HL-60
HOP-62 = test system: HOP-62
HOP-92 = test system: HOP-92
HT-29 = test system: HT-29
Hs-578T = test system: Hs-578T
IGROV-1 = test system: IGROV-1
K562 = test system: K562
KM12 = test system: KM12
LOX IMVI = test system: LOX IMVI
M14 = test system: M14
MCF7 = test system: MCF7
MDA-MB-231 = test system: MDA-MB-231
MDA-MB-435 = test system: MDA-MB-435
MDA-N = test system: MDA-N
MOLT-4 = test system: MOLT-4
Malme-3M = test system: Malme-3M
NCI-H226 = test system: NCI-H226
NCI-H23 = test system: NCI-H23
NCI-H460 = test system: NCI-H460
NCI-H522 = test system: NCI-H522
NCI/ADR-RES = test system: NCI/ADR-RES
OVCAR-3 = test system: OVCAR-3
OVCAR-4 = test system: OVCAR-4
OVCAR-5 = test system: OVCAR-5
OVCAR-8 = test system: OVCAR-8
PC-3 = test system: PC-3
RPMI-8226 = test system: RPMI-8226
RXF 393 = test system: RXF 393
SF-268 = test system: SF-268
SF-295 = test system: SF-295
SF-539 = test system: SF-539
SK-MEL-28 = test system: SK-MEL-28
SK-MEL-2 = test system: SK-MEL-2
SK-MEL-5 = test system: SK-MEL-5
SK-OV-3 = test system: SK-OV-3
SN12C = test system: SN12C
SNB-19 = test system: SNB-19
SNB-75 = test system: SNB-75
SR = test system: SR
SW-620 = test system: SW-620
T47D = test system: T47D
TK-10 = test system: TK-10
U-251 = test system: U-251
UACC-257 = test system: UACC-257
UACC-62 = test system: UACC-62
UO-31 = test system: UO-31
CCRF-CEM = test system: CCRF-CEM

CC(C)(C)OC(=O)N1C(C2=COc3ccccc3O2)=COc2ccccc21
GI50 (786-0): 38.1 µM (inactive)
GI50 (A498): 17.1 µM (inactive)
GI50 (A549): 32.7 µM (inactive)
GI50 (ACHN): 24.7 µM (inactive)
GI50 (BT-549): 24.8 µM (inactive)
GI50 (CAKI-1): 38 µM (inactive)
GI50 (COLO 205): 19.4 µM (inactive)
GI50 (DU-145): 28 µM (inactive)
GI50 (EKVX): 16.8 µM (inactive)
GI50 (HCC 2998): 16.2 µM (inactive)
GI50 (HCT-116): 23.9 µM (inactive)
GI50 (HCT-15): 31.2 µM
GI50 (HL-60): 19 µM (inactive)
GI50 (HOP-62): 15.5 µM (inactive)
GI50 (HOP-92): 19.6 µM (inactive)
GI50 (HT-29): 32 µM (inactive)
GI50 (Hs-578T): 41.5 µM (inactive)
GI50 (IGROV-1): 9.75 µM (inactive)
GI50 (K562): 21.5 µM (inactive)
GI50 (KM12): 29.9 µM (inactive)
GI50 (LOX IMVI): 17.5 µM (inactive)
GI50 (M14): 27.7 µM (inactive)
GI50 (MCF7): 24.2 µM (inactive)
GI50 (MDA-MB-231): 23.1 µM (inactive)
GI50 (MDA-MB-435): 31.3 µM (inactive)
GI50 (MDA-N): 32.4 µM (inactive)
GI50 (MOLT-4): 17.1 µM (inactive)
GI50 (Malme-3M): 22.9 µM (inactive)
GI50 (NCI-H226): 23.8 µM (inactive)
GI50 (NCI-H23): 29.7 µM (inactive)
GI50 (NCI-H460): 28.9 µM (inactive)
GI50 (NCI-H522): 16 µM (inactive)
GI50 (NCI/ADR-RES): 27.1 µM (inactive)
GI50 (OVCAR-3): 21.1 µM (inactive)
GI50 (OVCAR-4): 36.8 µM (inactive)
GI50 (OVCAR-5): 33.3 µM (inactive)
GI50 (OVCAR-8): 28.3 µM (inactive)
GI50 (PC-3): 32.8 µM (inactive)
GI50 (RPMI-8226): 13.9 µM (inactive)
GI50 (RXF 393): 5.18 µM (inactive)
GI50 (SF-268): 21.3 µM (inactive)
GI50 (SF-295): 26.9 µM (inactive)
GI50 (SF-539): 19.3 µM (inactive)
GI50 (SK-MEL-28): 30.1 µM (inactive)
GI50 (SK-MEL-2): 22 µM (inactive)
GI50 (SK-MEL-5): 19.1 µM (inactive)
GI50 (SK-OV-3): 29 µM (inactive)
GI50 (SN12C): 26.6 µM (inactive)
GI50 (SNB-19): 34.9 µM (inactive)
GI50 (SNB-75): 35 µM (inactive)
GI50 (SR): 21.1 µM (inactive)
GI50 (SW-620): 24.3 µM (inactive)
GI50 (T47D): 11.5 µM (inactive)
GI50 (TK-10): 33.6 µM (inactive)
GI50 (U-251): 32.1 µM (inactive)
GI50 (UACC-257): 23.9 µM (inactive)
GI50 (UACC-62): 15.7 µM (inactive)
GI50 (UO-31): 30 µM (inactive)

CCOC(=O)c1nc2ccccc2nc1NCc1cc(OC)c(OC)c(OC)c1
GI50 (786-0): 72.9 µM (inactive)
GI50 (A498): 23.9 µM (inactive)
GI50 (A549): 37.8 µM (inactive)
GI50 (ACHN): 43.6 µM (inactive)
GI50 (BT-549): 34.8 µM (inactive)
GI50 (CAKI-1): 70.6 µM (inactive)
GI50 (CCRF-CEM): 39.9 µM (inactive)
GI50 (COLO 205): 38.2 µM (inactive)
GI50 (DU-145): > 100 µM (inactive)
GI50 (EKVX): 51.1 µM (inactive)
GI50 (HCC 2998): 53.7 µM (inactive)
GI50 (HCT-116): 36.1 µM (inactive)
GI50 (HCT-15): 30.3 µM
GI50 (HL-60): 33.3 µM (inactive)
GI50 (HOP-62): 55.1 µM (inactive)
GI50 (HOP-92): 34.3 µM (inactive)
GI50 (HT-29): 40.5 µM (inactive)
GI50 (Hs-578T): 42.9 µM (inactive)
GI50 (IGROV-1): 53.1 µM (inactive)
GI50 (K562): 27.8 µM (inactive)
GI50 (KM12): 34.4 µM (inactive)
GI50 (LOX IMVI): 47 µM (inactive)
GI50 (MCF7): 35.6 µM (inactive)
GI50 (MDA-MB-231): 27.4 µM (inactive)
GI50 (MDA-MB-435): 20.3 µM (inactive)
GI50 (MDA-N): 14.8 µM (inactive)
GI50 (MOLT-4): 27.2 µM (inactive)
GI50 (Malme-3M): 29.6 µM (inactive)
GI50 (NCI-H226): 83 µM (inactive)
GI50 (NCI-H23): > 100 µM (inactive)
GI50 (NCI-H460): 28.8 µM (inactive)
GI50 (NCI-H522): 33 µM (inactive)
GI50 (NCI/ADR-RES): 15.1 µM (inactive)
GI50 (OVCAR-3): 75.5 µM (inactive)
GI50 (OVCAR-4): 29.6 µM (inactive)
GI50 (OVCAR-5): > 100 µM (inactive)
GI50 (OVCAR-8): 58.1 µM (inactive)
GI50 (PC-3): 25.2 µM (inactive)
GI50 (RPMI-8226): 25.2 µM (inactive)
GI50 (RXF 393): 14.9 µM (inactive)
GI50 (SF-268): > 100 µM (inactive)
GI50 (SF-295): 54.1 µM (inactive)
GI50 (SF-539): > 100 µM (inactive)
GI50 (SK-MEL-28): 58.3 µM (inactive)
GI50 (SK-MEL-5): 26.9 µM (inactive)
GI50 (SK-OV-3): 80.5 µM (inactive)
GI50 (SN12C): 27.4 µM (inactive)
GI50 (SNB-75): 89.5 µM (inactive)
GI50 (SR): 37.8 µM (inactive)
GI50 (SW-620): 42.2 µM (inactive)
GI50 (T47D): 35.5 µM (inactive)
GI50 (TK-10): > 100 µM (inactive)
GI50 (U-251): 42.1 µM (inactive)
GI50 (UACC-257): 75 µM (inactive)
GI50 (UACC-62): 36.8 µM (inactive)
GI50 (UO-31): 24.6 µM (inactive)
